Data from patent US20170035793A1, “Use of P2X Purinergic Receptor Agonists to Enhance Insulin Secretion In Pancreatic Beta Cells” (priority 2010, published 2017).
Entries after “also recorded” stand apart in the source; their conditions may differ.

Legend:
Format in all cases: cell-based
human islets [1] = assay: Dynamic insulin secretion from perifused human islets kept at constant glucose; details: for insulin secretory response to the agonist at low glucose: 3 mM glucose, ATP 100 μM (or concentration series), ATPγS 50 μM, BzATP 50 μM, α,β-methylene ATP 50 μM, ADP 100 μM, UTP 100 μM, adenosine 100 μM; for effect on basal insulin secretion: low glucose (3 mM), ARL67156 50 μM, apyrase 5 U/mL
Text: (§1) Islet Isolation. Islets were isolated as previously described (57). Monkey islets were isolated from cynomolgus monkeys (Macacca fascicularis) >4 years of age at the time of pancreas procurement, as previously described (58). Pig pancreata were procured from the local slaughterhouse. Mice (C57BL/6) and rat (Lewis rat; Harlan) islets were isolated using a rodent-islet isolation technique (59). All animal protocols were approved by the University of Miami Care and Use Committee. Human pancreatic islets were obtained from the Human Islet Cell Processing Facility at the Diabetes Research Institute, University of Miami Miller School of Medicine or from the Islet Cell Resource basic science islet distribution program, Islet Cell Resource Centers (ICRs) Consortium, Division of Clinical Research, National Center for Research Resources, National Institutes of Health. Human islets were dissociated into single cells using enzyme-free cell dissociation buffer (Invitrogen). Islets and islets cells from Q:1 all species were cultured identically (37° C. and 5% CO2) inCMRL Q:2 medium-1066 (Invitrogen), niacinamide (10 mM; Sigma), ITS (BD Biosciences), Zn2SO4 (15 μM, Sigma), GlutaMAX (2 mM; Invitrogen), Hepes (25 mM; Sigma), FBS (10%; Invitrogen), and penicillinstreptomycin (100 IU/mL-100 μg/mL; Invitrogen).
(§2) Insulin and Glucagon Secretion. Insulin and glucagon secretion were measured as previously described (8, 36). A high-capacity automated perifusion system was developed to dynamically measure hormone secretion from pancreatic islets. A low pulsatility peristaltic pump pushed Hepes-buffered solution (125 mM NaCl, 5.9 mM KCl, 2.56 mM CaCl2, 1 mM MgCl2, 25 mM Hepes, and 0.1% BSA, pH 7.4 at a perifusion rate of 100 μL/min) through a column containing 100 pancreatic islets immobilized in Bio-Gel P-4 Gel (BioRad). Except when otherwise stated, glucose concentration was adjusted to 3 mM for all experiments. Stimuli were applied with the perifusion buffer. The perifusate was collected in an automatic fraction collector designed for a 96-well plate format. The columns containing the islets and the perifusion solutions were kept at 37° C., and the perifusate in the collecting plate was kept at <4° C. Perifusates were collected every 1 min. Hormone release in the perifusate was determined with the human or mouse Endocrine LINCOplex Kit following manufacturer's instructions (Lincoresearch). Human islet preparations varied considerably in their quality. Thus, the magnitudes of the responses to different stimuli were compared with the same recording or using recordings from the same preparation.

human alpha cells = assay: [Ca2+]i imaging (Fura-2) of kainate-responsive human islet cells; details: agonist 50 μM; for fraction of kainate-responsive cells that responded with rapid [Ca2+]i increases: human islet cells responding to kainate (100 μM)
human β cells = assay: [Ca2+]i imaging (Fura-2) of glucose-responsive human islet cells; details: for [Ca2+]i response of β cells to the agonist: human β cells identified by response to high glucose (11 or 16 mM), recorded at 3 mM glucose, BzATP 50 μM; for effect on [Ca2+]i responses induced by ATPγS: iso-PPADS, nifedipine 10 μM
Text: as §1
[Ca^2+]i; Imaging. [Ca^2+]i imaging was performed as previously described (8, 36). Dispersed islet cells were immersed in Hepes-buffered solution (125 mMNaCl, 5.9 mMKCl, 2.56 mMCaCl2, 1 mMMgCl2, 25 mMHepes, and 0.1% BSA, pH7.4). Glucose was added to give a final concentration of 3 mM. Islets or dispersed islet cells were incubated in Fura-2 AM (2 μM; 1 h) and placed in a closed small volume imaging chamber (Warner Instruments). Stimuli were applied with the bathing solution. Islets loaded with Fura-2 were excited alternatively at 340 and 380 nm with a monochromator light source (Cairn Research Optoscan Monochromator; Cairn Research Ltd). Images were acquired with a Hamamatsu camera (Hamamatsu) attached to a Zeiss Axiovert 200 microscope (Carl Zeiss). Changes in the 340/380 fluorescence emission ratio over time were analyzed in individual islets and dispersed cells using Kinetic Imaging AQM Advance software (Kinetic Imaging). Peak changes in the fluorescence ratio constituted the response amplitude. Beta cells were distinguished from other endocrine cells by their [Ca^2+]i, responses to high glucose concentrations, and alpha cells were identified by their [Ca^2+]i responses to kainate (glutamate receptor agonist) (8, 36).

human islets [2] = assay: Glucose-induced insulin secretion (glucose raised from 3 mM to 11 mM) in perifused human islets; details: glucose 3 mM to 11 mM; for effect on glucose-induced insulin secretion: MRS2159 10 μM, Brilliant Blue G 1 μM, KN-62 1 μM, reactive blue 2 50 μM, MRS2179 10 μM, CGS15943 10 μM, adenosine 100 μM; for reduction of glucose-induced insulin release: apyrase 5 U/mL, suramin 50 μM or 100 μM, iso-PPADS 50 μM, oATP 500 μM
Text: as §1, §2

human islets [3] = assay: ATP-induced (or α,β meATP-induced) insulin secretion in human islets with antagonists or blockers; details: ATP 10 μM; for effect on insulin secretion induced by ATP: suramin 100 μM, Cd2+ 100 μM, nifedipine 10 μM, thapsigargin 1 μM
Text: as §1, §2

[4] = human β cells, ATPγS 50 μM, thapsigargin 1 μM

Compound: 2′(3′)-O-(4-Benzoylbenzoyl)ATP [BzATP]
- insulin secretory response to the agonist at low glucose (human islets [1]): elicited insulin secretory responses; also recorded: elicited strong insulin responses
- fraction of kainate-responsive cells that responded with rapid [Ca2+]i increases (human alpha cells): 30%
- [Ca2+]i response of β cells to the agonist (human β cells; ATPγS 50 μM): rapid [Ca^2+]i increases; also recorded: elicited repeatable [Ca^2+]i responses

Compound: Nc1ncnc2c1ncn2[C@@H]1O[C@H](COP(=O)(O)OP(=O)(O)O)[C@@H](O)[C@H]1O [ADP]
- insulin secretory response to the agonist at low glucose (human islets [1]): elicited insulin secretory responses; also recorded: increase insulin release

Compound: CCN(CC)c1ncnc2c1ncn2[C@@H]1O[C@H](COP(=O)(O)OP(=O)(O)C(Br)(Br)P(=O)(O)O)[C@@H](O)[C@H]1O [ARL67156]
- effect on glucose-induced insulin secretion (human islets [2]): did not amplify the β-cell response
- effect on basal insulin secretion (human islets [1]): increased basal insulin secretion

Compound: Nc1ncnc2c1ncn2[C@@H]1O[C@H](COP(=O)(O)OP(=O)(O)OP(O)(O)=S)[C@@H](O)[C@H]1O [ATPγS]
- insulin secretory response to the agonist at low glucose (human islets [1]): elicited insulin secretory responses; also recorded: elicited strong insulin responses
- [Ca2+]i response of alpha cells to the agonist (human alpha cells; human alpha cells identified by kainate (100 μM), 3 mM glucose): did not respond to ATP S
- fraction of kainate-responsive cells that responded with rapid [Ca2+]i increases (human alpha cells): 30%
- [Ca2+]i response of β cells to the agonist (human β cells; ATPγS 50 μM): rapid [Ca^2+]i increases
- [Ca2+]i response of β cells to the agonist (human β cells; ATPγS 50 μM, listed as ATP S): induced [Ca^2+]i responses
- [Ca2+]i responses to the agonist in the nominal absence of extracellular Ca2+ (human β cells; human β cells, nominal 0 Ca2+ (+1 mM EGTA), ATPγS 50 μM): reduced

Compound: CCOc1ccc(Nc2ccc(/C(=C3C=C/C(=[N+](/CC)Cc4cccc(S(=O)(=O)[O-])c4)C=C/3C)c3ccc(N(CC)Cc4cccc(S(=O)(=O)[O-])c4)cc3C)cc2)cc1.[Na+] [Brilliant Blue G]
- effect on glucose-induced insulin secretion (human islets [2]): not significantly reduced

Compound: CN([C@@H](Cc1ccc(OS(=O)(=O)c2cccc3cnccc23)cc1)C(=O)N1CCN(c2ccccc2)CC1)S(=O)(=O)c1cccc2cnccc12 [KN-62]
- effect on glucose-induced insulin secretion (human islets [2]): not significantly reduced

Compound: Cc1nc(N=Nc2ccc(C(=O)O)cc2)c(COP(=O)(O)O)c(C=O)c1O [MRS2159]
- effect on glucose-induced insulin secretion (human islets [2]): not significantly reduced

Compound: CNc1ncnc2c1ncn2[C@H]1C[C@H](OP(=O)(O)O)[C@@H](COP(=O)(O)O)O1 [MRS2179]
- effect on glucose-induced insulin secretion (human islets [2]): did not inhibit glucose induced insulin release

Compound: O=c1ccn([C@@H]2O[C@H](COP(=O)(O)OP(=O)(O)OP(=O)(O)O)[C@@H](O)[C@H]2O)c(=O)[nH]1 [UTP]
- insulin secretory response to the agonist at low glucose (human islets [1]): did not evoke strong insulin responses; also recorded: increase insulin release

Compound: Nc1ncnc2c1ncn2[C@@H]1O[C@H](CO)[C@@H](O)[C@H]1O [adenosine]
- effect on glucose-induced insulin secretion (human islets [2]): neither the P1 receptor antagonist CGS15943 (10 μM) nor adenosine (100 μM) altered glucose-induced insulin secretion
- insulin secretory response to the agonist at low glucose (human islets [1]): did not evoke strong insulin responses
- insulin secretory response to the agonist at low glucose (human islets [1]; listed as Adenosine): minor effect on insulin release

Compound: Cc1nc(/N=N/c2cc(S(=O)(=O)O)ccc2S(=O)(=O)O)c(COP(=O)(O)O)c(C=O)c1O [iso-PPADS]
- inhibition at 50 µM (human islets [3]; iso-PPADS 50 μM, read-out: inhibition of insulin responses to ATP): ~95%
- effect on insulin secretion induced by ATP (human islets [3]; iso-PPADS 50 μM): inhibited
- reduction of glucose-induced insulin release (human islets [2]): 30%
- block of [Ca2+]i responses to ATP (human β cells; human β cells): 80%
- effect on [Ca2+]i responses induced by ATPγS (human β cells; [4]): reduced [Ca^2+]i responses

Compound: Nc1ncnc2c1ncn2[C@@H](C=O)O[C@@H](C=O)COP(=O)(O)OP(=O)(O)OP(=O)(O)O [oATP, oxidized ATP]
- reduction of glucose-induced insulin release (human islets [2]): 65%

Compound: Nc1c(S(=O)(=O)O)cc(Nc2ccc(Nc3nc(Cl)nc(Nc4cccc(S(=O)(=O)O)c4)n3)c(S(=O)(=O)O)c2)c2c1C(=O)c1ccccc1C2=O [reactive blue 2]
- effect on glucose-induced insulin secretion (human islets [2]): did not inhibit glucose induced insulin release

Compound: Cc1ccc(C(=O)Nc2ccc(S(=O)(=O)O)c3cc(S(=O)(=O)O)cc(S(=O)(=O)O)c23)cc1NC(=O)c1cccc(NC(=O)Nc2cccc(C(=O)Nc3cc(C(=O)Nc4ccc(S(=O)(=O)O)c5cc(S(=O)(=O)O)cc(S(=O)(=O)O)c45)ccc3C)c2)c1 [suramin]
- effect on insulin secretion induced by ATP (human islets [3]; iso-PPADS 50 μM): inhibited
- reduction of glucose-induced insulin release (human islets [2]): 40%

Compound: C/C=C(/C)C(=O)O[C@H]1C(C)=C2[C@H]([C@@H]1OC(=O)CCCCCCC)[C@@](C)(OC(C)=O)C[C@H](OC(=O)CCC)[C@@]1(O)[C@H]2OC(=O)[C@@]1(C)O [thapsigargin]
- effect on insulin secretion induced by ATP (human islets [3]; iso-PPADS 50 μM): had no effect on insulin responses to ATP
- effect on insulin secretion induced by ATP (human islets [3]; iso-PPADS 50 μM, listed as Thapsigargin): did not affect insulin responses
- effect on [Ca2+]i responses induced by ATPγS (human β cells; [4]): not decreased
- effect on [Ca2+]i responses to ATP (human β cells; human β cells, thapsigargin 1 μM, nifedipine): did not affect [Ca^2+]i responses to ATP

Compound: Nc1ncnc2c1ncn2[C@@H]1O[C@H](COP(=O)(O)CP(=O)(O)OP(=O)(O)O)[C@@H](O)[C@H]1O [α,β-methylene ATP]
- insulin responses to the agonist in the nominal absence of extracellular Ca2+ (human islets [3]; nominal 0 Ca2+ (+1 mM EGTA), α,β meATP 100 μM): strongly diminished
- insulin secretory response to the agonist at low glucose (human islets [1]): elicited strong insulin responses
- [Ca2+]i response of β cells to the agonist (human β cells; ATPγS 50 μM): elicited repeatable [Ca^2+]i responses

Compound: adenosine deaminase
- effect of degrading adenosine on the apyrase effect on glucose-stimulated insulin secretion (human islets [2]; ADA 1 U/mL added to apyrase 5 U/mL): did not change the effect of apyrase on glucose-stimulated insulin secretion

Compound: apyrase
- reduction of glucose-induced insulin release (human islets [2]): ~15%
- effect on basal insulin secretion (human islets [1]): did not reduce basal insulin secretion
- effect on basal insulin secretion (human islets [1]; listed as Apyrase): did not change basal insulin secretion
